Experimental data taken from ChEMBL document CHEMBL4425167, “Screening Identifies Thimerosal as a Selective Inhibitor of Endoplasmic Reticulum Aminopeptidase 1” (ACS Med Chem Lett, 2016).
Active and inactive are the calls of the source. No cut-off for these calls is given here.

How the values were obtained:
[1] = target: T1, Endoplasmic reticulum aminopeptidase 1 (Homo sapiens, UniProt Q9NZ08); assay: Inhibition of recombinant ERAP1 (unknown origin) expressed in baculovirus infected Hi5 cells using L-leucine 7-amido-4-methyl coumarin as substrate up to 30 uM by fluorescence microplate reader method
BMDC [2] = assay: Inhibition of ovalbumin cross presentation to OT-I Rag1-/-mouse CD8+ T cells in C57Bl/6 JRj mouse ERAP-/- BMDC assessed as increase in IL-2 secretion from CD8+ T cells at 0.01 to 10 uM preincubated for 90 mins followed by 3 to 18 hrs incubation in presence of ovalbumin by sandwich ELISA method; assay type: functional, cell-based
BMDC [3] = assay: Inhibition of ovalbumin cross presentation to OT-I Rag1-/-mouse CD8+ T cells in C57Bl/6 JRj mouse ERAP+/+ BMDC assessed as increase in IL-2 secretion from CD8+ T cells at 0.01 to 10 uM preincubated for 90 mins followed by 3 to 18 hrs incubation in presence of ovalbumin by sandwich ELISA method; assay type: functional, cell-based
[4] = target: T1, Endoplasmic reticulum aminopeptidase 1; assay: Inhibition of human ERAP1 expressed in African green monkey COS7 cells using aminoacyl-4-methylcoumaryl-7-amide as substrate after 15 mins by spectrofluorophotometric method

T1 sequence (Q9NZ08 whole entry): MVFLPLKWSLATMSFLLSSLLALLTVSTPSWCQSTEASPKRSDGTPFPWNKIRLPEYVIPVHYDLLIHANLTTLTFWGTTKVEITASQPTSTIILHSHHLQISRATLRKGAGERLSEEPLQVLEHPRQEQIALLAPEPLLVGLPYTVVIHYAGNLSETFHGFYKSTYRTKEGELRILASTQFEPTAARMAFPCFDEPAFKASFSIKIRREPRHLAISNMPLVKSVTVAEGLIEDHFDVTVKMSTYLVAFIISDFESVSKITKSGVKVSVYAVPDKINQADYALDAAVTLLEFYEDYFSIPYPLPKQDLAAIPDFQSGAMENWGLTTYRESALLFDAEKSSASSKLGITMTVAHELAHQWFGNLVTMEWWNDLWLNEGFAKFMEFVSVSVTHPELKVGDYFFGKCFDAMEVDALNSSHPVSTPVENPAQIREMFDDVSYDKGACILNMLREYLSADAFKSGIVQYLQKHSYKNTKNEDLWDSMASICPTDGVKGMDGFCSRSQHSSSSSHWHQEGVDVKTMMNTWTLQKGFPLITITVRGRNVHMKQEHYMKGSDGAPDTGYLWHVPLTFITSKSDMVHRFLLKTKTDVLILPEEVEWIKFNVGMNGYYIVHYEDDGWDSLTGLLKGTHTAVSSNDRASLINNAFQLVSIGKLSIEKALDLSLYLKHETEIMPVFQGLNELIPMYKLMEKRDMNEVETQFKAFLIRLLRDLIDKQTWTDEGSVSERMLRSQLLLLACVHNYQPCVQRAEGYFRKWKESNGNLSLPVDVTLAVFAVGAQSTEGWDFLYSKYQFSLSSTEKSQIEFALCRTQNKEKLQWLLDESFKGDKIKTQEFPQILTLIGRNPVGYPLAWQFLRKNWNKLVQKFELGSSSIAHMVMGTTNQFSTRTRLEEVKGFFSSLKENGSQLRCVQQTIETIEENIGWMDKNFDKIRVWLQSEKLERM

## O=C(O)c1ccccc1S
[1]
  inhibition: inactive
BMDC [2]
  inhibition: inactive
BMDC [3]
  inhibition: inactive

## CC(C)C[C@H](NC(=O)[C@@H](O)[C@H](N)Cc1ccccc1)C(=O)O [UBENIMEX]
[4]
  IC50: 50 to 100 µM
